Source: paper PMC6522510 (Nature Communications, 2019)
Structures can show the parent of a compound that is named as a salt. Where two headings read alike, the source gives them in different places.

Assays:
Design in all cases: species or system AML cell lines (8); Primary HTS, single concentration about 10 uM, Cell Titer Glo viability; log10 luminescence, per cent inhibition relative to cycloheximide control
Settings in all cases: 72 h, inhibitor
CHRF288-11 = system: CHRF288-11
CMK = system: CMK
CMS = system: CMS
M07e = system: M07e
ML-2 = system: ML-2
MOLM-13 = system: MOLM-13
MV4-11 = system: MV4-11
U937 = system: U937
[1] = relative to cycloheximide control, log10 luminescence, CHRF288-11 %inh, 10 µM
[2] = relative to cycloheximide control, log10 luminescence, CMK %inh, 10 µM
[3] = relative to cycloheximide control, log10 luminescence, CMS %inh, 10 µM
[4] = relative to cycloheximide control, log10 luminescence, M07e %inh, 10 µM
[5] = relative to cycloheximide control, log10 luminescence, ML-2 %inh, 10 µM
[6] = relative to cycloheximide control, log10 luminescence, MOLM-13 %inh, 10 µM
[7] = relative to cycloheximide control, log10 luminescence, MV4-11 %inh, 10 µM
[8] = relative to cycloheximide control, log10 luminescence, U937 %inh, 10 µM
[9] = relative to cycloheximide control, log10 luminescence

SMILES	CHRF288-11 %inh (CHRF288-11; [9])	CMK %inh (CMK; [9])	CMS %inh (CMS; [9])	M07e %inh (M07e; [9])	ML-2 %inh (ML-2; [9])	MOLM-13 %inh (MOLM-13; [9])	MV4-11 %inh (MV4-11; [9])	U937 %inh (U937; [9])	further results
C/C=C(/C(=C/C)c1ccc(O)cc1)c1ccc(O)cc1 [SJ000285735-5, DIENESTROL]	–	–	–	–	–	–	–	–	CHRF288-11 %inh (CHRF288-11; [1]): -2.147%; CMK %inh (CMK; [2]): 33.82%; CMS %inh (CMS; [3]): -2.72%; M07e %inh (M07e; [4]): 2.558%; ML-2 %inh (ML-2; [5]): 1.532%; MOLM-13 %inh (MOLM-13; [6]): 17.84%; MV4-11 %inh (MV4-11; [7]): 1.913%; U937 %inh (U937; [8]): 2.402%
CCOC(=O)c1c(C)[nH]c(/C=C2\C(=O)Nc3ccccc32)c1C [SJ000773165-1, VEGFR2 KINASE INHIBITOR I]	3.3%	1.896%	-2.877%	-1.094%	-1.978%	14.97%	4.438%	-1.551%	–
COc1ccc2c(C3=C(c4cn(C)c5ccccc45)C(=O)NC3=O)cn(C)c2c1 [SJ000581082-1]	125.3%	107.7%	102.2%	103.9%	51.13%	81.86%	77.51%	79.84%	–
COc1cccc(-n2cnc3c(N/N=C/c4ccncc4)ncnc32)c1 [SJ000573055-1, U17791/62/2]	0.9652%	9.137%	0.1507%	2.779%	-0.9344%	29.19%	22.16%	6.107%	–
C[C@]12CCC(=O)C=C1CC[C@@H]1[C@@H]2[C@@H](O)C[C@@]2(C)[C@H]1CC[C@]2(O)C(=O)COP(=O)(O)O [SJ000286156-3, HYDROCORTISONE SODIUM PHOSPHATE]	4.933%	0.9258%	-1.283%	0.6039%	0.191%	15.41%	-4.752%	5.176%	–
C[C@H](NC(=O)Cc1cc(F)cc(F)c1)C(=O)N[C@H](C(=O)OC(C)(C)C)c1ccccc1 [SJ000772434-1, DAPT | DAPT (GSI-IX)]	2.669%	-0.675%	0.2641%	1.132%	5.016%	2.225%	5.48%	0.2025%	–
O=C1NC(O)C(c2c[nH]c3ccccc23)=C1c1c[nH]c2ccccc12 (stereo not shown) [SJ000581000-1]	3.04%	-1.548%	-2.539%	-1.63%	-2.056%	-0.2184%	0.3489%	-0.5983%	–
CNC(=O)[C@@H](NC(=O)[C@H](CC(C)C)[C@H](O)C(=O)NO)C(C)(C)C [SJ000772411-1]	–	–	–	–	–	–	–	–	CHRF288-11 %inh (CHRF288-11; [1]): 14.63%; CMK %inh (CMK; [2]): -3.077%; CMS %inh (CMS; [3]): -1.756%; M07e %inh (M07e; [4]): -0.5084%; ML-2 %inh (ML-2; [5]): 1.691%; MOLM-13 %inh (MOLM-13; [6]): 2.673%; MV4-11 %inh (MV4-11; [7]): -4.036%; U937 %inh (U937; [8]): 2.038%
CN(C)CC#Cc1cccc(C(=O)c2cnn(-c3ccc(F)cc3)c2N)c1 [SJ000581036-1]	-3.732%	1.135%	3.514%	2.548%	0.4348%	29.95%	0.9409%	6.781%	–
Oc1ncc(N(CCCl)CCCl)c(O)n1 [SJ000518988-1, URACIL MUSTARD]	–	–	–	–	–	–	–	–	CHRF288-11 %inh (CHRF288-11; 10 µM): 3.507%; CMK %inh (CMK; 10 µM): -4.305%; CMS %inh (CMS; 10 µM): 1.52%; M07e %inh (M07e; 10 µM): 2.028%; ML-2 %inh (ML-2; 10 µM): 1.705%; MOLM-13 %inh (MOLM-13; 10 µM): -0.3938%; MV4-11 %inh (MV4-11; 10 µM): -1.171%; U937 %inh (U937; 10 µM): -0.2311%
COc1ccc(CCN=C2NC(=O)/C(=C/c3ccc4ncccc4c3)S2)cc1 [SJ000580998-1]	-1.93%	-3.047%	-0.7764%	1.057%	-1.934%	2.923%	-1.039%	0.5801%	–
FC(F)(F)c1cccc(Nc2nccc(-c3cnn4nc(-c5ccccc5)ccc34)n2)c1 [SJ000573250-1, U17838/151/2]	8.085%	0.1975%	3.035%	2.996%	-0.4365%	2.078%	3.227%	-0.9941%	–
OCCN1CCN(CCCN2c3ccccc3Sc3ccc(Cl)cc32)CC1 [SJ000286016-7, PERPHENAZINE]	–	–	–	–	–	–	–	–	CHRF288-11 %inh (CHRF288-11; [1]): -1.811%; CMK %inh (CMK; [2]): 1.286%; CMS %inh (CMS; [3]): 1.171%; M07e %inh (M07e; [4]): 0.915%; ML-2 %inh (ML-2; [5]): -0.4093%; MOLM-13 %inh (MOLM-13; [6]): -1.496%; MV4-11 %inh (MV4-11; [7]): 1.352%; U937 %inh (U937; [8]): -2.208%
Cn1cc(C2=C(c3cn(CCCN=C(N)N)c4ccccc34)C(=O)NC2=O)c2ccccc21 [SJ000581011-1]	6.037%	-5.09%	-3.925%	-0.6273%	1.035%	3.172%	6.352%	-0.6406%	–
O=C(Nc1n[nH]c2nnc(-c3cccnc3)cc12)C1CC1 [SJ000573209-1, VB49227-069A2]	–	–	–	–	–	–	–	–	CHRF288-11 %inh (CHRF288-11; 10 µM): 36.24%; CMK %inh (CMK; 10 µM): 119.5%; CMS %inh (CMS; 10 µM): 99.51%; M07e %inh (M07e; 10 µM): 20.82%; ML-2 %inh (ML-2; 10 µM): 10.24%; MOLM-13 %inh (MOLM-13; 10 µM): 58.37%; MV4-11 %inh (MV4-11; 10 µM): 53.21%; U937 %inh (U937; 10 µM): 14.39%
CCN(CC)C(=O)N1CCN(C)CC1 [SJ000285736-4, DIETHYLCARBAMAZINE CITRATE]	-2.146%	2.446%	-4.008%	-3.005%	-1.11%	1.95%	2.119%	2.79%	–
COc1cc2nc(N3CCN(C(=O)C4COc5ccccc5O4)CC3)nc(N)c2cc1OC (stereo not shown) [SJ000113084-6, DOXAZOSIN MESYLATE]	36.53%	9.497%	0.401%	-1.557%	-0.964%	9.986%	-1.195%	1.071%	–
